# Values of other authors, collected in patent EP3616687A2, “PREPARATION FOR THE TREATMENT AND/OR PROPHYLAXIS OF INFLAMMATORY INFECTIOUS DISEASES” (Lovtsov, Valentin Vyacheslavovich, priority 2017, dated 2018).
# Conditions: clinical microbiological studies
structure (smiles),measurement,value
[H]/N=C(\N/C(=N/[H])NCCCCCCNC(=N)NC(=N)Nc1ccc(Cl)cc1)Nc1ccc(Cl)cc1 [Chlorhexidine],"antibacterial activity, fold higher compared to Miramistine",8 fold
